{"source": "patent US9486506B2", "about": "(Novo Nordisk A/S, priority 2011, dated 2016)", "target": "T1, glucagon receptor (Homo sapiens, UniProt P47871)", "T1 construct": "expressed in transfected cells", "T1 sequence (P47871 26-477)": "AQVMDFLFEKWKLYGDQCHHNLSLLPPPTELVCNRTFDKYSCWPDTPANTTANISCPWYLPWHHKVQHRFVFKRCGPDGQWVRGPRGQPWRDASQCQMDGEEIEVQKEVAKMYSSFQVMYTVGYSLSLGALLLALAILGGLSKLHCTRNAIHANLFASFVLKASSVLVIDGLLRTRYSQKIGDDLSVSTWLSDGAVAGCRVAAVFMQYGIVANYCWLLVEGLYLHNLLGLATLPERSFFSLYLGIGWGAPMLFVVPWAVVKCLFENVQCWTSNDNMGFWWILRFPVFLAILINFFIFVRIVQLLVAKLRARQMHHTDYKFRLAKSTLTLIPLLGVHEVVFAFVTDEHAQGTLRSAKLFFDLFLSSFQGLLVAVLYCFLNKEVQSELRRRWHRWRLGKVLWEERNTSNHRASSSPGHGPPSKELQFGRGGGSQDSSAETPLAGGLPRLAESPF", "assay": "Assay (I) Glucagon activity (cAMP biosensor, FLIPR)", "assay_type": "cell-based", "experimental": "The cells (14000 per well) were incubated (37° C., 5% CO2) overnight in 384-well plates. Next day the cells were loaded with a calcium responsive dye that only distributed into the cytoplasm. Probenecid, an inhibitor of the organic anion transporter, was added to prevent the dye from leaving the cell. A PDE inhibitor was added to prevent formatted cAMP from being degraded. The plates were placed into a […] and the glucagon analogues were added. End point data were collected after 6 minutes. An increase in intracellular cAMP was proportional to an increased in calcium concentrations in the cytoplasm. When calcium was bound the dry a fluorescence signal was generated. EC50-values were calculated in Prism5.", "note": "Numbered stars: 1 amine (or outer) side, 2 acyl side, 3 side chain; on linkers, the order of the positions; unused ones are H or OH. Side chains are listed from the residue outwards. Peptide text beside a SMILES is read from it. * marks the point of attachment. C18 diacid = O=C(O)CCCCCCCCCCCCCCCCC(=O)*; γGlu = O=C(O)[C@H](CCC(=O)[*:2])N[*:1]; AEEA = NCCOCCOCC(=O)O", "data": [{"smiles": "CC(C)C[C@H](NC(=O)[C@H](Cc1c[nH]c2ccccc12)NC(=O)[C@H](CCCCNC(=O)CC[C@H](NC(=O)CC[C@H](NC(=O)COCCOCCNC(=O)COCCOCCNC(=O)CC[C@H](NC(=O)CCCCCCCCCCCCCCCCC(=O)O)C(=O)O)C(=O)O)C(=O)O)NC(=O)[C@@H](NC(=O)[C@H](Cc1ccccc1)NC(=O)[C@H](CC(=O)O)NC(=O)[C@H](CCC(N)=O)NC(=O)[C@H](C)NC(=O)[C@H](CCCNC(=N)N)NC(=O)[C@H](CCCNC(=N)N)NC(=O)[C@@H](NC(=O)[C@H](CC(=O)O)NC(=O)[C@H](CC(C)C)NC(=O)[C@H](Cc1ccc(O)cc1)NC(=O)[C@H](CCCCN)NC(=O)[C@H](CO)NC(=O)[C@H](Cc1ccc(O)cc1)NC(=O)[C@H](CC(=O)O)NC(=O)[C@H](CO)NC(=O)[C@@H](NC(=O)[C@H](Cc1ccccc1)NC(=O)[C@@H](NC(=O)CNC(=O)[C@H](CCC(N)=O)NC(=O)[C@H](CO)NC(=O)[C@@H](N)Cc1c[nH]cn1)[C@@H](C)O)[C@@H](C)O)C(C)C)C(C)C)C(=O)N[C@@H](CC(C)C)C(=O)N[C@@H](CO)C(=O)N[C@H](C(=O)O)[C@@H](C)O", "note": "[Example 30, N^ε24-[(4S)-4-carboxy-4-[[(4S)-4-carboxy-4-[[2-[2-[2-[[2-[2-[2-[[(4S)-4-carboxy-4-(17-carboxyheptadecanoylamino)butanoyl]amino]ethoxy]ethoxy]acetyl]amino]ethoxy]ethoxy]acetyl]amino]butanoyl]amino]butanoyl]-[Val16,Lys24,Leu27,Ser28]-Glucagon]", "values": [{"measurement": "EC50", "result": 0.307, "unit": "nM"}]}, {"smiles": "CC(C)C[C@H](NC(=O)[C@H](Cc1c[nH]c2ccccc12)NC(=O)[C@H](CCCCNC(=O)CC[C@H](NC(=O)CC[C@H](NC(=O)COCCOCCNC(=O)COCCOCCNC(=O)CC[C@H](NC(=O)CCCCCCCCCCCCCCCCC(=O)O)C(=O)O)C(=O)O)C(=O)O)NC(=O)[C@@H](NC(=O)[C@H](Cc1ccccc1)NC(=O)[C@H](CCC(=O)O)NC(=O)[C@H](CCC(N)=O)NC(=O)[C@H](C)NC(=O)[C@H](CCCNC(=N)N)NC(=O)[C@H](CCCNC(=N)N)NC(=O)[C@@H](NC(=O)[C@H](CC(=O)O)NC(=O)[C@H](CC(C)C)NC(=O)[C@H](Cc1ccc(O)cc1)NC(=O)[C@H](CCCCN)NC(=O)[C@H](CO)NC(=O)[C@H](Cc1ccc(O)cc1)NC(=O)[C@H](CC(=O)O)NC(=O)[C@H](CO)NC(=O)[C@@H](NC(=O)[C@H](Cc1ccccc1)NC(=O)[C@@H](NC(=O)CNC(=O)[C@H](CCC(N)=O)NC(=O)[C@H](CO)NC(=O)[C@@H](N)Cc1c[nH]cn1)[C@@H](C)O)[C@@H](C)O)[C@@H](C)O)C(C)C)C(=O)N[C@@H](CC(C)C)C(=O)N[C@@H](CO)C(=O)N[C@H](C(=O)O)[C@@H](C)O", "note": "[Example 31, N^ε24-[(4S)-4-carboxy-4-[[(4S)-4-carboxy-4-[[2-[2-[2-[[2-[2-[2-[[(4S)-4-carboxy-4-(17-carboxyheptadecanoylamino)butanoyl]amino]ethoxy]ethoxy]acetyl]amino]ethoxy]ethoxy]acetyl]amino]butanoyl]amino]butanoyl]-[Thr16,Glu21,Lys24,Leu27,Ser28]-Glucagon] (H-HSQGTFTSDYSKYLDTRRAQEFVK([γGlu-γGlu-AEEA-AEEA-γGlu-C18 diacid])WLLST-OH)", "values": [{"measurement": "EC50", "result": 0.072, "unit": "nM"}]}, {"smiles": "CC[C@H](C)[C@H](NC(=O)[C@H](CC(N)=O)NC(=O)[C@H](CC(C)C)NC(=O)[C@H](CC(C)C)NC(=O)[C@H](Cc1c[nH]c2ccccc12)NC(=O)[C@H](CCCCNC(=O)CC[C@H](NC(=O)COCCOCCNC(=O)COCCOCCNC(=O)CC[C@H](NC(=O)CCCCCCCCCCCCCCCCC(=O)O)C(=O)O)C(=O)O)NC(=O)[C@@H](NC(=O)[C@H](Cc1ccccc1)NC(=O)[C@H](CC(=O)O)NC(=O)[C@H](CCC(N)=O)NC(=O)[C@H](C)NC(=O)[C@H](CCCNC(=N)N)NC(=O)[C@H](CCCNC(=N)N)NC(=O)[C@H](CO)NC(=O)[C@H](CCC(=O)O)NC(=O)[C@H](CC(C)C)NC(=O)[C@H](Cc1ccc(O)cc1)NC(=O)[C@H](CCCCN)NC(=O)[C@H](CO)NC(=O)[C@H](Cc1ccc(O)cc1)NC(=O)[C@H](CC(=O)O)NC(=O)[C@H](CO)NC(=O)[C@@H](NC(=O)[C@H](Cc1ccccc1)NC(=O)[C@@H](NC(=O)CNC(=O)[C@H](CCC(N)=O)NC(=O)[C@H](CO)NC(=O)[C@@H](N)Cc1c[nH]cn1)[C@@H](C)O)[C@@H](C)O)C(C)C)C(=O)O", "note": "[Example 32, N^ε24-[(4S)-4-carboxy-4-[[2-[2-[2-[[2-[2-[2-[[(4S)-4-carboxy-4-(17-carboxyheptadecanoylamino)butanoyl]amino]ethoxy]ethoxy]acetyl]amino]ethoxy]ethoxy]acetyl]amino]butanoyl]-[Glu15,Lys24,Leu27,Ile29]-Glucagon]", "values": [{"measurement": "EC50", "result": 1.12, "unit": "nM"}]}, {"smiles": "CC(C)C[C@H](NC(=O)[C@H](Cc1ccc(O)cc1)NC(=O)[C@H](CCCCN)NC(=O)[C@H](CO)NC(=O)[C@H](Cc1ccc(O)cc1)NC(=O)[C@H](CC(=O)O)NC(=O)[C@H](CO)NC(=O)[C@@H](NC(=O)[C@H](Cc1ccccc1)NC(=O)[C@@H](NC(=O)CNC(=O)[C@H](CCC(N)=O)NC(=O)[C@H](CO)NC(=O)[C@@H](N)Cc1c[nH]cn1)[C@@H](C)O)[C@@H](C)O)C(=O)N[C@@H](CCC(=O)O)C(=O)N[C@@H](CO)C(=O)N[C@@H](CCCNC(=N)N)C(=O)N[C@@H](CCCNC(=N)N)C(=O)N[C@@H](C)C(=O)N[C@@H](CCC(N)=O)C(=O)N[C@@H](CC(=O)O)C(=O)N[C@@H](Cc1ccccc1)C(=O)N[C@H](C(=O)N[C@@H](CCCCNC(=O)CC[C@H](NC(=O)COCCOCCNC(=O)COCCOCCNC(=O)CC[C@H](NC(=O)CCCCCCCCCCCCCCCCC(=O)O)C(=O)O)C(=O)O)C(=O)N[C@@H](Cc1c[nH]c2ccccc12)C(=O)N[C@@H](CC(C)C)C(=O)N[C@@H](CC(C)C)C(=O)N[C@@H](CC(N)=O)C(=O)N[C@H](C(=O)O)C(C)C)C(C)C", "note": "[Example 33, N^ε24-[(4S)-4-carboxy-4-[[2-[2-[2-[[2-[2-[2-[[(4S)-4-carboxy-4-(17-carboxyheptadecanoylamino)butanoyl]amino]ethoxy]ethoxy]acetyl]amino]ethoxy]ethoxy]acetyl]amino]butanoyl]-[Glu15,Lys24,Leu27,Val29]-Glucagon]", "values": [{"measurement": "EC50", "result": 0.92, "unit": "nM"}]}, {"smiles": "CC(C)C[C@H](NC(=O)[C@H](CC(N)=O)NC(=O)[C@H](CC(C)C)NC(=O)[C@H](CC(C)C)NC(=O)[C@H](Cc1c[nH]c2ccccc12)NC(=O)[C@H](CCCCNC(=O)CC[C@H](NC(=O)COCCOCCNC(=O)COCCOCCNC(=O)CC[C@H](NC(=O)CCCCCCCCCCCCCCCCC(=O)O)C(=O)O)C(=O)O)NC(=O)[C@@H](NC(=O)[C@H](Cc1ccccc1)NC(=O)[C@H](CC(=O)O)NC(=O)[C@H](CCC(N)=O)NC(=O)[C@H](C)NC(=O)[C@H](CCCNC(=N)N)NC(=O)[C@H](CCCNC(=N)N)NC(=O)[C@H](CO)NC(=O)[C@H](CCC(=O)O)NC(=O)[C@H](CC(C)C)NC(=O)[C@H](Cc1ccc(O)cc1)NC(=O)[C@H](CCCCN)NC(=O)[C@H](CO)NC(=O)[C@H](Cc1ccc(O)cc1)NC(=O)[C@H](CC(=O)O)NC(=O)[C@H](CO)NC(=O)[C@@H](NC(=O)[C@H](Cc1ccccc1)NC(=O)[C@@H](NC(=O)CNC(=O)[C@H](CCC(N)=O)NC(=O)[C@H](CO)NC(=O)[C@@H](N)Cc1c[nH]cn1)[C@@H](C)O)[C@@H](C)O)C(C)C)C(=O)O", "note": "[Example 34, N^ε24-[(4S)-4-carboxy-4-[[2-[2-[2-[[2-[2-[2-[[(4S)-4-carboxy-4-(17-carboxyheptadecanoylamino)butanoyl]amino]ethoxy]ethoxy]acetyl]amino]ethoxy]ethoxy]acetyl]amino]butanoyl]-[Glu15,Lys24,Leu27,Leu29]-Glucagon]", "values": [{"measurement": "EC50", "result": 1.9, "unit": "nM"}]}]}
